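48-hour exposure; five concentrations; linearly interpolated endpoints. Here, GI50 denotes the concentration required for 50% inhibition of growth. Definition used: TGI = concentration required for complete inhibition of growth.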 A value given as a limit tells only on which side of the number the result lay.

Among the test systems are HCT-15 colon; HOP-62 NSCLC; HT29 colon; OVCAR-4 ovarian; OVCAR-8 ovarian; SK-MEL-28 melanoma; SK-OV-3 ovarian; SR leukemia; UACC-62 melanoma; EKVX NSCLC.
Assay in all cases: NCI tumour cell line growth inhibition, 48 h

Turning to `COc1ccc2c(c1)CCc1[nH]nc(-c3cc(OC)c(OC)c(OC)c3)c1-2`, the GI50 is below 0.01 µM in the experiment on HCT-15 colon; below 0.01 µM with HOP-62 NSCLC; below 0.01 µM in the experiment with HT29 colon; below 0.01 µM in the experiment with OVCAR-4 ovarian; below 0.01 µM in the experiment with OVCAR-8 ovarian; 1.62 µM in the experiment on SK-MEL-28 melanoma. In addition, the GI50 with SK-OV-3 ovarian, in the experiment with SR leukemia and in the experiment on UACC-62 melanoma was below 0.01 µM each time. Moreover, the TGI with HCT-15 colon was 11.8 µM; in the experiment with HOP-62 NSCLC, 10.8 µM; in the experiment on HT29 colon, 10.1 µM; in the experiment on OVCAR-4 ovarian it was 56.5 µM; in the experiment on OVCAR-8 ovarian it was 15.4 µM; in the experiment on SK-MEL-28 melanoma, 21.7 µM. Besides, the TGI with SK-OV-3 ovarian is below 0.01 µM; in the experiment with SR leukemia, 22.9 µM; in the experiment with UACC-62 melanoma, 13 µM.

As for `Cc1cc([N+](=O)[O-])ccc1NS(=O)(=O)c1cc(Cl)ccc1Cl`, the GI50 with HCT-15 colon was 2.92 µM; with HOP-62 NSCLC, 3.21 µM; in the experiment on HT29 colon, 3.81 µM; in the experiment on OVCAR-4 ovarian it was 2.42 µM; with OVCAR-8 ovarian, 3.65 µM; in the experiment on SK-MEL-28 melanoma it was 5.17 µM. The GI50 is 2.51 µM with SK-OV-3 ovarian, 4.52 µM with SR leukemia and 1.29 µM in the experiment on UACC-62 melanoma. Moreover, the TGI in the experiment on HCT-15 colon was 13.1 µM; with HOP-62 NSCLC, 16.1 µM; with HT29 colon it was above 100 µM; in the experiment with OVCAR-4 ovarian, above 30.8 µM; in the experiment on OVCAR-8 ovarian it was above 100 µM; in the experiment with SK-MEL-28 melanoma it was above 94.6 µM. Further, the TGI amounted to 8.63 µM with SK-OV-3 ovarian, 27.6 µM with SR leukemia and 17.9 µM in the experiment on UACC-62 melanoma.

With `O=[P+](O)c1cc2ccccc2c2ccccc12`, the TGI in the experiment on EKVX NSCLC, with HOP-62 NSCLC, with HT29 colon, with OVCAR-4 ovarian, in the experiment with OVCAR-8 ovarian and in the experiment with SK-MEL-28 melanoma was above 100 µM in each case. The TGI with SK-OV-3 ovarian and with UACC-62 melanoma was above 100 µM throughout.

For `CC(C)N1CCC2(CC1)NNc1ncccc1-n1cccc12`, the TGI in the experiment with EKVX NSCLC, in the experiment with HOP-62 NSCLC, in the experiment on HT29 colon, in the experiment on OVCAR-4 ovarian, in the experiment with OVCAR-8 ovarian and with SK-MEL-28 melanoma was above 100 µM throughout.

In the case of `Cc1ccc(-c2cc(=O)c3cc(C)c(C)c(C(=O)O)c3o2)cc1`, the TGI in the experiment with EKVX NSCLC, with HCT-15 colon, in the experiment on HOP-62 NSCLC, in the experiment on HT29 colon, in the experiment with OVCAR-4 ovarian and in the experiment with OVCAR-8 ovarian was above 100 µM each time. For the same molecule, the TGI with SK-MEL-28 melanoma, in the experiment on SK-OV-3 ovarian and in the experiment with UACC-62 melanoma was above 100 µM throughout.

For `CC(C)(c1ccc(Oc2ccc(C#N)c(C#N)c2)cc1)c1ccc(Oc2ccc(C#N)c(C#N)c2)cc1`, the GI50 in the experiment on EKVX NSCLC, with HOP-62 NSCLC, in the experiment with HT29 colon, with OVCAR-4 ovarian, with OVCAR-8 ovarian and with SK-MEL-28 melanoma was above 100 µM each time. For the same molecule, the GI50 in the experiment with SK-OV-3 ovarian and in the experiment on UACC-62 melanoma was above 100 µM throughout. The TGI in the experiment with EKVX NSCLC, with HOP-62 NSCLC, in the experiment on HT29 colon, with OVCAR-4 ovarian, in the experiment on OVCAR-8 ovarian and in the experiment on SK-MEL-28 melanoma was above 100 µM throughout. Besides, the TGI with SK-OV-3 ovarian and in the experiment with UACC-62 melanoma was above 100 µM in each case.

As to `C[n+]1c2ccccc2c(Nc2ccc(NS(=O)(=O)CCCCN=C(N)N)cc2)c2ccc(N)cc21`, the GI50 with HCT-15 colon is 50.9 µM; with HOP-62 NSCLC it was 0.217 µM; with HT29 colon it was 1.02 µM; in the experiment with OVCAR-4 ovarian, 5.4 µM; with OVCAR-8 ovarian, 2.48 µM; in the experiment with SK-MEL-28 melanoma, 11.2 µM. In addition, the GI50 in the experiment on SK-OV-3 ovarian is 2.77 µM; in the experiment with SR leukemia it was 0.138 µM; with UACC-62 melanoma, 0.917 µM. Besides, the TGI with HCT-15 colon is above 100 µM; in the experiment on HOP-62 NSCLC, 26.6 µM; with HT29 colon, 84.5 µM; with OVCAR-4 ovarian, above 100 µM; with OVCAR-8 ovarian, above 100 µM; in the experiment with SK-MEL-28 melanoma, above 72.3 µM. Also, the TGI in the experiment with SK-OV-3 ovarian was above 100 µM; in the experiment with SR leukemia it was above 26.3 µM; in the experiment on UACC-62 melanoma, 22.4 µM.

Take `O=CC(Br)C(Br)c1ccccc1` (configuration not stated): the GI50 is 0.913 µM in the experiment with HCT-15 colon; 13.3 µM in the experiment with HOP-62 NSCLC; 1.71 µM with HT29 colon; 1.69 µM with OVCAR-4 ovarian; 2.95 µM in the experiment on OVCAR-8 ovarian; 2.31 µM in the experiment on SK-MEL-28 melanoma. Further, the GI50 with SK-OV-3 ovarian is 16.6 µM; in the experiment on SR leukemia, 0.445 µM; in the experiment on UACC-62 melanoma it was 1.79 µM. Further, the TGI with HCT-15 colon was 2.93 µM; in the experiment with HOP-62 NSCLC, 27.8 µM; in the experiment with HT29 colon it was 3.19 µM; in the experiment on OVCAR-4 ovarian it was 3.14 µM; in the experiment with OVCAR-8 ovarian, 10.2 µM; in the experiment on SK-MEL-28 melanoma, 6.35 µM. Besides, the TGI in the experiment on SK-OV-3 ovarian was 30.3 µM; with SR leukemia it was 2.81 µM; in the experiment on UACC-62 melanoma, 3.74 µM.

As for `CCO/C=C1\N=C(C(Cl)c2ccccc2)OC1=O` (configuration not stated), the TGI with EKVX NSCLC, with HCT-15 colon, in the experiment with HOP-62 NSCLC, in the experiment on HT29 colon, with OVCAR-4 ovarian and with OVCAR-8 ovarian was above 100 µM throughout. Moreover, the TGI in the experiment with SK-MEL-28 melanoma and in the experiment on UACC-62 melanoma was above 100 µM in each case.

Consider `CC(C)(O)[C@@H]1CC[C@@]2(C)CCC[C@H](O)[C@H]2C1`, for which the TGI in the experiment on HCT-15 colon, in the experiment on HOP-62 NSCLC, with HT29 colon, with OVCAR-4 ovarian, in the experiment with OVCAR-8 ovarian and with SK-MEL-28 melanoma was above 100 µM each time. In addition, the TGI in the experiment with SK-OV-3 ovarian, with SR leukemia and with UACC-62 melanoma was above 100 µM in each case.

Turning to `COc1ccc(OC)c(NCC#N)c1`, the TGI in the experiment with EKVX NSCLC, with HCT-15 colon, with HOP-62 NSCLC, in the experiment on HT29 colon, with OVCAR-4 ovarian and in the experiment with OVCAR-8 ovarian was above 100 µM in each case. Also, the TGI in the experiment with SK-MEL-28 melanoma, in the experiment with SK-OV-3 ovarian and with UACC-62 melanoma was above 100 µM throughout.

For the origin of these results see PubChem BioAssay (NCI).
